Calls of active or inactive are those of the source. The calls are words filed in the database; no cut-off is given here.
Test system: Human immunodeficiency virus 1
Assay: Compound was tested for antiretroviral activity against HIV; compound found active.
Type: functional, organism-based

SMILES: O=c1[nH]cnc2c1ncn2[C@H]1CC[C@@H](CO)O1
- Activity: Active

Source: ChEMBL document CHEMBL1131736, “Lipase-catalyzed protection of the hydroxy groups of the nucleosides inosine and 2'-deoxyinosine: a new chemoenzymatic synthesis of the antiviral drug 2',3'-dideoxyinosine” (Bioorg Med Chem Lett, 1999)
